Source: patent publication US20210369853A1, “TARGETED PROTEASE DEGRADATION PLATFORM” (EUBULUS BIOTHERAPEUTICS INC., priority 2018, published 2021)
Read-outs that look alike come from different tables or passages of the source. Blank lines part the entries; values can stand above or below the compound they belong to.

Legend:
Type in all cases: cell-based
[1] = system: Human Monocytic Leukemia MV4-11; experiment: Cell proliferation experiment (Alarm blue, 72 h, EC50); conditions: Homo sapiens
Method in brief: (§1)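 Single-cell suspensions from log-phase cultures are plated, compound in complete medium is added at 5-fold dilution steps (two replicates each), and cells grow for 72 h. Viability is then measured as Alamar blue fluorescence, giving EC50 by sigmoidal fitting.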

BRD4 = biological target: T1, BRD4 (Homo sapiens, UniProt O60885); experiment: Western blot, protein degradation (DC50)
T1 construct: endogenous in cells
Method: (§2) Cells were treated with the compound for a period of time, after that the cells were collected by centrifugation. After washing with PBS, the cells were lysed by adding RIPA buffer; the cell lysate were added to the loading buffer and then appropriate volume were taken and slowly added to the corresponding wells of the gel plate, and run the SDS-PAGE gel (4%-12%). After running the gel, transferred to the PVDF membrane and sealed with 5% skimmed milk powder at room temperature for 1 hour. The membrane was placed in the primary antibody diluted with 5% skimmed milk powder and shaked slowly overnight at 4° C. After incubation with primary antibody, the membrane was washed 3 times using a TBST shaker; added secondary antibody diluted with 5% skimmed milk powder corresponding to the primary antibody, and shaked slowly at room temperature for 1 hour. After incubation with secondary antibody, the membrane was washed 3 times using the TBST shaker again. The PVDF membrane was flatted in the cassette, the strip was evenly infiltrated with ECL developer solution, and placed in ChemDoc XRS+ gel imager for taking pictures. The intensity of protein bands was analyzed quantitatively using ImageJ software.

PLK1 = biological target: T2, PLK1 (Homo sapiens, UniProt P53350); experiment: Western blot, protein degradation (DC50)
T2 construct: endogenous in cells
Method: as §2

[2] = system: Human Colon Cancer HCT-116; experiment: Cell proliferation experiment (Alarm blue, 72 h, EC50); conditions: Homo sapiens, HCT-116; HCT116 cells
Method in brief: as §1

[3] = 24 h, western blot, read-out: BRD4 DC50 (24 h)
[4] = 24 h, western blot, read-out: PLK1 DC50 (24 h)
[5] = 6 h, western blot, read-out: BRD4 DC50 (6 h)
[6] = 6 h, western blot, read-out: PLK1 DC50 (6 h)
[7] = 24 h, read-out: BRD4 DC50 (nM) (24 h)
[8] = 24 h, read-out: PLK1 DC50 (nM) (24 h)

T2 sequence (P53350 whole entry): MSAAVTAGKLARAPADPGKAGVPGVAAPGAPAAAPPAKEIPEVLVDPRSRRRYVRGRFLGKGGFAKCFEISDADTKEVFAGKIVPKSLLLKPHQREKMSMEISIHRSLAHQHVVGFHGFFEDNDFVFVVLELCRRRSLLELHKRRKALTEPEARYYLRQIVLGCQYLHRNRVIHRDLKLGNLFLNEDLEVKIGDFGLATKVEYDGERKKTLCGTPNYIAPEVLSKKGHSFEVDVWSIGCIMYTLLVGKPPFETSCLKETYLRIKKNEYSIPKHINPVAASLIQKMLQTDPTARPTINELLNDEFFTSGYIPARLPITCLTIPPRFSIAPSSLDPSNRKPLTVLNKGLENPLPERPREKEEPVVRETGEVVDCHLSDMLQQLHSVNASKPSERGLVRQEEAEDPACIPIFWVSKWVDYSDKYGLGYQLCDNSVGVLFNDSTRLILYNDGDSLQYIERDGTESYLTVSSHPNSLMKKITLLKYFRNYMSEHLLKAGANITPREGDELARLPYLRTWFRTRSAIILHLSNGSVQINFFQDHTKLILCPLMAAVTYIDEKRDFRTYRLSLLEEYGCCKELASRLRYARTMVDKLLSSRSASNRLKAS

EC50 ([1]; MV4-11, MV4;11 cells): 10 to 100 nM
DC50 (BRD4; [3]): < 10 nM
DC50 (PLK1; [4]): 10 to 100 nM
Compound: CC[C@@H]1C(=O)N(C)c2cnc(Nc3ccc(C(=O)NC4CCN(CCNCCOCC(=O)Nc5cccc6c5CN(C5CCC(=O)NC5=O)C6=O)C4)cc3OC)nc2N1C1CCCC1 (stereo partly drawn) [UB-180703]

EC50 ([1]; MV4-11, MV4;11 cells): 100 to 1000 nM
DC50 (BRD4; [7]): 10 to 100 nM
DC50 (PLK1; [8]): 10 to 100 nM
Compound: CC[C@@H]1C(=O)N(C)c2cnc(Nc3ccc(C(=O)NCc4cn(CCCN(CCC(=O)Nc5cccc6c5CN(C5CCC(=O)NC5=O)C6=O)C(=O)OCc5ccc(NC(=O)[C@H](CCCNC(N)=O)NC(=O)[C@@H](NC(=O)CCCCCN6C(=O)C=CC6=O)C(C)C)cc5)nn4)cc3OC)nc2N1C1CCCC1 (stereo partly drawn) [UB-180717]

EC50 ([1]; MV4-11, MV4;11 cells): 100 to 1000 nM
DC50 (BRD4; [7]): 100 to 1000 nM
DC50 (PLK1; [8]): 100 to 1000 nM
Compound: CC[C@@H]1c2c(C#N)ncn2-c2cnc(Nc3ccc(C(=O)NCc4cn(CCNCCOCC(=O)Nc5cccc6c5CN(C5CCC(=O)NC5=O)C6=O)nn4)cc3OC)nc2N1C1CCCC1 (stereo partly drawn) [UB-180718]

EC50 ([1]; MV4-11, MV4;11 cells): < 10 nM
DC50 (BRD4; 6 h, read-out: BRD4 DC50 (nM) (6 h)): < 10 nM
DC50 (BRD4; [7]): < 10 nM
DC50 (PLK1; 6 h, read-out: PLK1 DC50 (nM) (6 h)): > 1000 nM
DC50 (PLK1; [8]): < 10 nM
Compound: CC[C@@H]1C(=O)N(C)c2cnc(Nc3ccc(C(=O)NC4CCN(CCOCCNCC(=O)Nc5cccc6c5CN(C5CCC(=O)NC5=O)C6=O)CC4)cc3OC)nc2N1Cc1cnc(C)s1 (stereo partly drawn) [UB-180745]

EC50 [2]: 100 to 1000 nM
EC50 ([1]; MV4-11, MV4;11 cells): < 10 nM
Compound: CC[C@@H]1C(=O)N(C)c2cnc(Nc3ccc(C(=O)NC4CCN(CCOCCN(CC)CC(=O)Nc5cccc6c5CN(C5CCC(=O)NC5=O)C6=O)CC4)cc3OC)nc2N1C1CCCC1 (stereo partly drawn) [UB-180828]

More lines, now with the values behind:

Compound: CC[C@@H]1C(=O)N(C)c2cnc(Nc3ccc(C(=O)NCCCNCCCCCCCC(=O)Nc4cccc5c4CN(C4CCC(=O)NC4=O)C5=O)cc3OC)nc2N1C1CCCC1 (stereo partly drawn) [UB-180632]
EC50 ([1]; MV4-11, MV4;11 cells): 10 to 100 nM
DC50 (BRD4; 6 h, read-out: BRD4 DC50 (6 h)): < 10 nM
DC50 (PLK1; 6 h, read-out: PLK1 DC50 (6 h)): < 10 nM

Compound: CC[C@@H]1C(=O)N(C)c2cnc(Nc3ccc(C(=O)NCCOCCOCCOCCNCCCC(=O)Nc4cccc5c4CN(C4CCC(=O)NC4=O)C5=O)cc3OC)nc2N1C1CCCC1 (stereo partly drawn) [UB-180636]
EC50 ([1]; MV4;11 cells): 10 to 100 nM
DC50 (BRD4; 6 h, read-out: BRD4 DC50 (6 h)): 10 to 100 nM
DC50 (PLK1; 6 h, read-out: PLK1 DC50 (6 h)): 10 to 100 nM

Compound: Cc1sc2c(c1C)C(c1ccc(Cl)cc1)=N[C@@H](CC(=O)NCCCNCCCC(=O)Nc1cccc3c1CN(C1CCC(=O)NC1=O)C3=O)c1nnc(C)n1-2 (stereo partly drawn) [UB-180640]
EC50 [2]: > 1000 nM
EC50 ([1]; MV4-11, MV4;11 cells): 100 to 1000 nM

Compound: Cc1sc2c(c1C)C(c1ccc(Cl)cc1)=N[C@@H](CC(=O)NCCCNCCCCC(=O)Nc1cccc3c1CN(C1CCC(=O)NC1=O)C3=O)c1nnc(C)n1-2 (stereo partly drawn) [UB-180641]
EC50 [2]: > 1000 nM
EC50 ([1]; MV4-11, MV4;11 cells): 100 to 1000 nM

Compound: Cc1sc2c(c1C)C(c1ccc(Cl)cc1)=N[C@@H](CC(=O)NCCCNCCCCCC(=O)Nc1cccc3c1CN(C1CCC(=O)NC1=O)C3=O)c1nnc(C)n1-2 (stereo partly drawn) [UB-180642]
EC50 [2]: > 1000 nM
EC50 ([1]; MV4-11, MV4;11 cells): 100 to 1000 nM

Compound: CC[C@@H]1C(=O)N(C)c2cnc(Nc3ccc(C(=O)NCCCNCCCCCC(=O)Nc4cccc5c4CN(C4CCC(=O)NC4=O)C5=O)cc3OC)nc2N1C1CCCC1 (stereo partly drawn) [UB-180659]
EC50 ([1]; MV4;11 cells): 10 to 100 nM
DC50 (BRD4; [3]): < 10 nM
DC50 (PLK1; [4]): 100 to 1000 nM

Compound: CC[C@@H]1C(=O)N(C)c2cnc(Nc3ccc(C(=O)NCCOCCOCCOCCNCC(=O)Nc4cccc5c4CN(C4CCC(=O)NC4=O)C5=O)cc3OC)nc2N1C1CCCC1 (stereo partly drawn) [UB-180663]
EC50 ([1]; MV4;11 cells): 10 to 100 nM
DC50 (BRD4; [5]): < 10 nM
DC50 (BRD4; [3]): < 10 nM
DC50 (PLK1; [6]): < 10 nM
DC50 (PLK1; [4]): < 10 nM

Compound: CC[C@@H]1C(=O)N(C)c2cnc(Nc3ccc(C(=O)NCCOCCOCCOCCNCCCCC(=O)Nc4cccc5c4CN(C4CCC(=O)NC4=O)C5=O)cc3OC)nc2N1C1CCCC1 (stereo partly drawn) [UB-180666]
EC50 ([1]; MV4-11, MV4;11 cells): 10 to 100 nM
DC50 (BRD4; [3]): < 10 nM
DC50 (PLK1; [4]): 10 to 100 nM

Compound: CC[C@@H]1C(=O)N(C)c2cnc(Nc3ccc(C(=O)NCCCNCCCCC(=O)Nc4cccc5c4CN(C4CCC(=O)NC4=O)C5=O)cc3OC)nc2N1Cc1ccc(Cl)s1 (stereo partly drawn) [UB-180673]
EC50 ([1]; MV4-11, MV4;11 cells): 10 to 100 nM
DC50 (BRD4; [5]): 10 to 100 nM
DC50 (PLK1; [6]): 10 to 100 nM

Compound: CC[C@@H]1C(=O)N(C)c2cnc(Nc3ccc(C(=O)NCCCNCCCCCCCC(=O)Nc4cccc5c4CN(C4CCC(=O)NC4=O)C5=O)cc3OC)nc2N1Cc1ccc(Cl)s1 (stereo partly drawn) [UB-180674]
EC50 ([1]; MV4-11, MV4;11 cells): < 10 nM
DC50 (BRD4; [5]): < 10 nM
DC50 (PLK1; [6]): < 10 nM
